Laboratory results from PMC10587126, “Molecular hybridization strategy for tuning bioactive peptide function” (Communications Biology, 2023).
Like-named read-outs stand apart in the source and are kept apart here. No end group written: not given here.

Tests used:
[1] = Skin tissue histopathological analysis (H&E); format: in vivo, mouse; conditions: H&E staining, tissue collected 24 h after infection and treatment, three mice per condition
Procedure: The fur on the back of the mice was removed and the mice were infected and treated as described in the Skin abscess infection mouse model section. After 24 h, mice were euthanized for tissue collection. Samples were pre-fixed in individual cassettes, then transferred to a container filled with 70% ethanol (EtOH) for slicing and staining. Next, the samples were placed on glass slides for microscopy analysis. We collected the tissue from three mice per condition analyzed.

human erythrocytes [2] = test: Hemolytic activity; format: cell-based; conditions: 0.1–100 μmol L^−1 in PBS, room temperature, 1 h, absorbance 405 nm
Procedure: Assays against freshly collected human erythrocytes were performed following protocols described by Pedron et al.[54]. Briefly, peptide aliquots at concentrations ranging from 0.1 to 100 μmol L^−1 were incubated with a suspension of erythrocytes at room temperature for 1 h. The samples were then centrifuged, and the absorbance of the supernatant was measured at 405 nm. […] The surfactant SDS and PBS buffer were used as positive[81],[82] and negative controls, respectively. Sodium heparin was used as an anticoagulant when collecting human blood. Three biological repeats were performed. All experiments were performed in accordance with the protocol CEUA/IB #I-1345/15 approved by the Instituto Butantan.

[3] = Mouse body weight in the skin abscess infection model; format: in vivo
Procedure: The anti-infective activity of the peptides VmCT1, temporin A, VT, and TV against A. baumannii ATCC 19606 was evaluated as described by Torres et al.[7],[83] Bacteria were grown in tryptic soy broth medium to an optical density of 0.5 at 600 nm. Cells were washed twice with sterile phosphate-buffered saline (pH 7.4, 13,000 rpm for 1 min) and resuspended to a final concentration of 1 × 10^7 CFU/20 μL. To generate the skin infection, female CD-1 mice (6-weeks-old) were first anesthetized with isoflurane and their backs were shaved. Using a needle, a superficial linear abrasion was made on the shaved area of the mice to injure just the stratum corneum and the upper layer of the epidermis. An aliquot of 20 μL containing 1 × 10^7 CFU of A. baumannii was then inoculated over the wound area with a pipette tip. The next day, the infected area was treated with the peptides (i.e., VmCT1, temporin A, VT, and TV), which were administered onto the abscess at their MIC. The animals were euthanized, and the scarified skin area removed 2- and 4-days post-infection. The excised area was homogenized using a bead beater for 20 min (25 Hz) and serially diluted for CFU quantification. Eight mice were used per group (n = 8). All experiments were performed in accordance with protocol 806763 approved by the IACUC at the University of Pennsylvania.

[4] = Resistance to proteolytic degradation in fetal bovine serum; format: in vitro ADME; conditions: 25% fetal bovine serum in water, 37 °C
Procedure: Stability assays were performed following the protocol described by Torres et al.[67]. Briefly, a peptide solution was added to GIBCO fetal bovine serum diluted to 25% in water and kept at 37 °C. The degradation kinetics were monitored by liquid chromatography and the percentage of peptide remaining in each case was calculated by integrating the peptide peak area. These experiments were performed as three independent replicates, and aliquots were taken at 0, 0.5, 1, 2, 4, and 6 h.

human erythrocytes [5] = conditions: at 100 µmol L^−1; cited from earlier work
Source text: These observations are consistent with our results for PV, which incorporated protonectin’s hydrophobic face (Fig. 2) displaying increased antimicrobial activity than VP (Fig. 3). Additi ...

[6] = day 0 = 100, Day 1, replicate 1
[7] = day 0 = 100, Day 1, replicate 2
[8] = day 0 = 100, Day 1, replicate 3
[9] = day 0 = 100, Day 2, replicate 1
[10] = day 0 = 100, Day 2, replicate 2
[11] = day 0 = 100, Day 2, replicate 3
[12] = day 0 = 100, Day 3, replicate 1
[13] = day 0 = 100, Day 3, replicate 2
[14] = day 0 = 100, Day 3, replicate 3
[15] = day 0 = 100, Day 4, replicate 1
[16] = day 0 = 100, Day 4, replicate 2
[17] = day 0 = 100, Day 4, replicate 3
[18] = LC peak area, time 0 = 100, 0.5 h, replicate 1
[19] = LC peak area, time 0 = 100, 0.5 h, replicate 2
[20] = LC peak area, time 0 = 100, 0.5 h, replicate 3
[21] = LC peak area, time 0 = 100, 1 h, replicate 1
[22] = LC peak area, time 0 = 100, 1 h, replicate 2
[23] = LC peak area, time 0 = 100, 1 h, replicate 3
[24] = LC peak area, time 0 = 100, 2 h, replicate 1
[25] = LC peak area, time 0 = 100, 2 h, replicate 2
[26] = LC peak area, time 0 = 100, 2 h, replicate 3
[27] = LC peak area, time 0 = 100, 4 h, replicate 1
[28] = LC peak area, time 0 = 100, 4 h, replicate 2
[29] = LC peak area, time 0 = 100, 6 h, replicate 1
[30] = LC peak area, time 0 = 100, 6 h, replicate 2
[31] = LC peak area, time 0 = 100, 6 h, replicate 3
[32] = LC peak area, time 0 = 100, 4 h, replicate 3

Row | Substance | Histopathological effect on skin tissue (in words) [1] | Hemolytic activity (concentration of peptide needed to kill 10% of red blood cells) (human erythrocytes [2]) | Mouse body weight, normalized to the weight at the beginning of the experiment [3, 6] | Mouse body weight, normalized to the weight at the beginning of the experiment [3, 7] | Mouse body weight, normalized to the weight at the beginning of the experiment [3, 8] | Mouse body weight, normalized to the weight at the beginning of the experiment [3, 9] | Mouse body weight, normalized to the weight at the beginning of the experiment [3, 10] | Mouse body weight, normalized to the weight at the beginning of the experiment [3, 11] | Mouse body weight, normalized to the weight at the beginning of the experiment [3, 12] | Mouse body weight, normalized to the weight at the beginning of the experiment [3, 13] | Mouse body weight, normalized to the weight at the beginning of the experiment [3, 14] | Mouse body weight, normalized to the weight at the beginning of the experiment [3, 15] | Peptide remaining [4, 20] | Peptide remaining [4, 23] | Peptide remaining [4, 26] | Peptide remaining [4, 27] | Peptide remaining [4, 28] | Peptide remaining [4, 29] | Peptide remaining [4, 30] | Peptide remaining [4, 31] | also measured
1 | FLGAIGNVLKSIL-NH2 [TV] | Neither TV nor VmCT1 changed the tissue’s morphology | 0.2 µmol/L | 90 | 90 | 100 | 90 | 95 | 100 | 90 | 95 | 105 | 85 | 0 | 0 | 0 | 0 | 0 | 0 | 0 | 0 | Mouse body weight, normalized to the weight at the beginning of the experiment [3, 16]: 95; Mouse body weight, normalized to the weight at the beginning of the experiment [3, 17]: 100; Peptide remaining after 30 min ([4]; LC peak area vs time 0, 30 min, three replicates): totally degraded; Peptide remaining [4, 18]: 0; Peptide remaining [4, 19]: 0; Peptide remaining [4, 21]: 0; Peptide remaining [4, 22]: 0; Peptide remaining [4, 24]: 0; Peptide remaining [4, 25]: 0; remaining at 4 h ([4]; fetal bovine serum, 25% in water, LC peak area, time 0 = 100, 4 h, replicate 3, read-out: Peptide remaining): 0%
2 | FLGALWNVAKSVF-NH2 [VmCT1, reference compound] | Neither TV nor VmCT1 changed the tissue’s morphology |  | 90 | 100 | 105 | 90 | 95 | 100 | 95 | 100 | 105 | 90 | 26.5 | 7.4 | 11.9 | 0.0 | 0.0 | 0.0 | 0.0 | 0.0 | Mouse body weight, normalized to the weight at the beginning of the experiment [3, 16]: 100; Mouse body weight, normalized to the weight at the beginning of the experiment [3, 17]: 100; Peptide remaining [4, 18]: 28.5; Peptide remaining [4, 19]: 24.4; Peptide remaining [4, 21]: 6.3; Peptide remaining [4, 22]: 8.5; Peptide remaining [4, 24]: 10.5; Peptide remaining [4, 25]: 13.9; Peptide remaining [4, 32]: 0.0
3 | SLLSLIRKLIT-NH2 [Decoralin, reference compound] |  | 1.6 µmol/L |  |  |  |  |  |  |  |  |  |  | 0.0 | 0.0 | 0.0 | 0.0 | 0.0 | 0.0 | 0.0 | 0.0 | Peptide remaining [4, 32]: 0.0; remaining at 0.5 h ([4]; fetal bovine serum, 25% in water, LC peak area, time 0 = 100, 0.5 h, replicate 1, read-out: Peptide remaining): 71%; remaining at 0.5 h ([4]; fetal bovine serum, 25% in water, LC peak area, time 0 = 100, 0.5 h, replicate 2, read-out: Peptide remaining): 65%; remaining at 1 h ([4]; fetal bovine serum, 25% in water, LC peak area, time 0 = 100, 1 h, replicate 1, read-out: Peptide remaining): 26%; remaining at 1 h ([4]; fetal bovine serum, 25% in water, LC peak area, time 0 = 100, 1 h, replicate 2, read-out: Peptide remaining): 23%; remaining at 2 h ([4]; fetal bovine serum, 25% in water, LC peak area, time 0 = 100, 2 h, replicate 1, read-out: Peptide remaining): 29%; remaining at 2 h ([4]; fetal bovine serum, 25% in water, LC peak area, time 0 = 100, 2 h, replicate 2, read-out: Peptide remaining): 23%; Hemolytic activity (in words) (human erythrocytes [5]): low hemolytic activity
